A word on the IC50: it is the concentration needed to halve the response being measured.

Here are results for 2 compounds from patent publication US20070027175A1, “Antineoplastic activities of ellipticine and its derivatives” (priority 2005, published 2007).

Like-named read-outs stand apart in the source and are kept apart here.

In one series the test system is myeloma cells. Kind of series: Velcade sensitivity of myeloma cells without and with stromal co-culture. The class given is cell-based, human. The source says: The bone marrow microenvironment augments myelomagenesis and can protect myeloma cells from destruction when patients undergo systemic and supportive therapies. In vitro, via direct cell-cell adhesion or soluble factors generated by […] interactions, myeloma cells are reportedly well protected from chemotherapeutic agents (Nefedova et al., 2001).

The subject of the next series is CAG myeloma cell line. Description: CellTiter-Glo luminescent cell viability assay, CAG. The class given is cell-based, human. Details: unit of the concentration uncertain. As for the experimental part: (§1) The dosage of each derivative was set at 2, 0.2 and 0.02 mM. A cell culture medium control and 0.5% DMSO control was maintained in each experiment. The cell viability was tested each day over a period of five days using the CellTiter-Glo luminescent cell viability assay kit from Promega Co.
(§2) Cell Titer-Glo luminescent cell viability assay kit from Promega Co (Madison, Wis.) was used to determine cell growth inhibition by the various compounds tested. The kit determines cell viability by quantifying the amount of ATP present in the cell culture medium. Presence of ATP signals the presence of metabolically active cells (3). The intensity of luminescence was measured by a computerized luminometer (Promega, Co. Madison, Wis.). Each well was read five times within 30 minutes of adding Cell Titer-Glo reagent mixture.
(§3) Cells were contacted with the antineoplastic agents in ninety six well culture plates. The concentration of each neoplastic agent was maintained a constant. A cell culture medium control and 0.5% DMSO control were maintained in each set of experiments. The cell viability was tested every day using the CellTiter-Glo luminescent cell viability kit from Promega Co. (Madison, Wis.) for a period of five days.
(In general: In ATP-based viability assays light output follows the ATP content of the culture.)

The next series relates to RPMI 8226 cells. Kind of series: Drug resistance and cytotoxicity MTT assay, RPMI 8226. Conditions: 96 hours. The class given is cell-based, human. As for the experimental part: (§4) FIGS. 13A-13B show dose response of RPMI 8226 and 8226/Dox1V myeloma cells to EPED3 (FIG. 13A) or Dox (FIG. 13B). Cells were incubated for 96 hours with drug concentrations as indicated and analyzed by MTT assays; linear regression analysis was used to determine the IC50 for each drug (EPED3, FIG. 13A; Dox, FIG. 13B) and each cell line (RPMI8226, squares; 8226/Dox1V, circles). Data are presented as the mean of four independent experiments.
(§5) The 8226/Dox1V and its parental line, RPMI 8226, cells were plated in 96-well plates at 10,000 cells/well and incubated with serial dilutions of EPED3 or Dox, as previously described (Landowski et al., 1999). After 96 hours incubation at 37° C., MTT was added to each well at a final concentration of 20 μg/ml and incubated an additional 4 hours. Plates were centrifuged and the media replaced with 0.1 ml DMSO to solublize the formazan complex. Optical density was measured at 540 nm using a Bio-Tek microplate spectrophotometer. IC50 values were calculated by linear regression analysis (Origins® Software Technologies, Inc.) of the log-linear plot for percent survival versus log drug concentration.
In drug resistance studies, the efficacy of EPED3 with 8226/Dox1V cells and the parental line, RPMI 8226 cells was investigated. Both cell lines were treated with either EPED3 or Dox, and the MTT assays were used to assess cell growth. […]

The subject of series [1] is non myeloma cancer cell lines HEL, HL-60, k562, MEG01, THP1, Hela, G401, Du145, sw480, sw620, saoS2, MG63. Kind of series: Overall cell growth inhibition, non myeloma cancer cell lines (CellTiter-Glo). The class given is cell-based. Details: dose or concentration left out as unconfirmed. Conditions: 5 days. On the procedure:
Five non myeloma cancer cell lines, HEL (▮), HL-60 (▴), k562 (X), MEG01 ( ? ) and THP1 (▪) were exposed to NSC 388258 over a period of 5 days. The dose was set at 0.2 mM. […] The results obtained from these controls are pooled together in the figure (●).
Seven non myeloma cancer cell lines, Hela (▮), G401 (▴), Du145 (X), sw480, (*) sw620 (▪), SaoS2 (I) and MG63 (−) were exposed to NSC 388258 over a period of 5 days. The dose was set at 0.2 mM. […] The results obtained from these controls are pooled together in the figure (●).
To test the overall cell growth inhibition of NSC 338258, twelve non myeloma cancer cell lines, HEL, HL-60, k562, MEG01, THP1, Hela, G401, Du145, sw480, sw620, saoS2, and MG63, were exposed to the compound in 96 well cell culture plates for a period of five days.

The test system of the next series is U266 myeloma cell line. Details: cell viability (CellTiter-Glo luminescent assay): dose or concentration left out as unconfirmed. As to conditions: for cell viability (CellTiter-Glo luminescent assay): U266. As for the experimental part:
as §1
U266 cell line was one of 12 myeloma cell lines used in screening of anti-myeloma agents. In FIG. 10A, cells were treated with 14 ellipticine derivatives (0.5 mM) obtained from the DTP; control cells were untreated. Ellipticine derivatives are coded with NSC identifiers. For 5 days, cell viability was measured every 24 hours using CellTiter-Glo Luminescent Assay. […] In FIG. 10B, U266 cells, along with six other myeloma cell lines, were co-cultured in direct contact with human fetal bone mesenchymal cells and treated with EPED3 (0.5 mM and 2 mM) or Velcade (0.5 mM); control cells were untreated. Cell proliferation was assessed by MTT assay every 24 hours for 5 days. […] Error bars indicate standard deviation.
as §2, §3

The next series relates to 8226/Dox1V cells. Description: Drug resistance and cytotoxicity MTT assay, 8226/Dox1V. The class given is cell-based, human. On the procedure:
as §4
The 8226/Dox1V cell line was established by chronic exposure to Dox in presence of P-glycoprotein inhibitor, verapamil and was characterized by reduced expression and activity of topo II (Futscher et al., 1993).
as §5
In drug resistance studies, the efficacy of EPED3 with 8226/Dox1V cells and the parental line, RPMI 8226 cells was investigated. Both cell lines were treated with either EPED3 or Dox, and the MTT assays were used to assess cell growth. Linear regression analysis of 96-hour dose-response curves was used to compare cytotoxicity of EPED3 in 8226/Dox1V and RPMI 8226 cell lines.
(In general: Formazan colour is commonly taken as a measure of viable cells.)

As for `CC(C)C[C@H](NC(=O)[C@H](Cc1ccccc1)NC(=O)c1cnccn1)B(O)O` [Velcade, bortezomib, reference compound], the effective low dose in the series on myeloma cells (absence of stromal cells) is recorded as 4 nM. Moreover, the reduction in sensitivity entry in the series on myeloma cells (co-culture versus absence of stromal cells, data not shown) is given as “more than 100 fold”. Also, the “tolerance of myeloma cells to Velcade” value in the series on myeloma cells (co-culture with human fetal bone mesenchymal cells, data not shown) is reported as “up to 500 nM”.
`Cc1c2ccncc2c(C)c2c1[nH]c1ccc(OCCN(C)C)cc12` [NSC 338258, ellipticine, 9-dimethyl amino-ethoxy-]: the “cell viability (CellTiter-Glo luminescent assay)” value (shortened to “cell viability”) in the series with CAG myeloma cell line (0.02 (unit uncertain), Day 1) is recorded as 173,140; in the series with CAG myeloma cell line (0.02 (unit uncertain), Day 2), 383,737; in the series with CAG myeloma cell line (0.02 (unit uncertain), Day 3) it was 780,458; in the series on CAG myeloma cell line (0.02 (unit uncertain), Day 4), 1,670,491; in the series with CAG myeloma cell line (0.02 (unit uncertain), Day 5) it was 3,108,577; in the series with CAG myeloma cell line (0.2 (unit uncertain), Day 1) it was 103,658. Also, the “cell viability” value is recorded as 105,998 with CAG myeloma cell line (0.2 (unit uncertain), Day 2); 111,306 with CAG myeloma cell line (0.2 (unit uncertain), Day 3); 123,316 in the series with CAG myeloma cell line (0.2 (unit uncertain), Day 4); 64,052 with CAG myeloma cell line (0.2 (unit uncertain), Day 5); 76,441 with CAG myeloma cell line (2 (unit uncertain), Day 1); 39,273 with CAG myeloma cell line (2 (unit uncertain), Day 2). Besides, the “cell viability” value in the series on CAG myeloma cell line (2 (unit uncertain), Day 3) is reported as 23,807; in the series with CAG myeloma cell line (2 (unit uncertain), Day 4) it was 19,546; in the series on CAG myeloma cell line (2 (unit uncertain), Day 5), 5,483; in the series on U266 myeloma cell line (0.02, Day 1), 26,346; in the series with U266 myeloma cell line (0.02, Day 2) it was 37,946; in the series on U266 myeloma cell line (0.02, Day 3) it was 43,097. Also, the “cell viability” value in the series on U266 myeloma cell line (0.02, Day 4) is 74,106; in the series with U266 myeloma cell line (0.02, Day 5), 86,287; with U266 myeloma cell line (0.2, Day 1) it was 5,906; with U266 myeloma cell line (0.2, Day 2) it was 1,414; with U266 myeloma cell line (0.2, Day 3), 515; with U266 myeloma cell line (0.2, Day 4), 291. Besides, the “cell viability” value in the series with U266 myeloma cell line (0.2, Day 5) was 101; in the series on U266 myeloma cell line (2, Day 1) it was 2,559; in the series with U266 myeloma cell line (2, Day 2) it was 691; with U266 myeloma cell line (2, Day 3), 172; in the series with U266 myeloma cell line (2, Day 4), 183; in the series on U266 myeloma cell line (2, Day 5) it was 104. Further, the IC50 in the series with RPMI 8226 cells was determined as 150 nM; with 8226/Dox1V cells (8226/Dox1V, 96 hours), 131 nM. In addition, in series [1], the “activity against non-myeloma cell lines” value is “effective against non-myeloma cell lines”. Moreover, the “cytotoxic activity on U266 cells” value in the series on U266 myeloma cell line is “drastic cytotoxic activity”. Moreover, the “resistance of 8226/Dox1V versus parental RPMI 8226” value with 8226/Dox1V cells (ratio of IC50, 96 hours) was “no significant resistance”.
